Assay results taken from PubChem BioAssay (NCI).
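Method: 48-hour compound exposure of cells in 96-well plates, five concentrations, linear interpolation of endpoints. GI50 = concentration required for 50% inhibition of growth. At the TGI there is no net growth.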

Assays:
Assay in all cases: NCI-60 cell line screen, 48 h
HOP-62 NSCLC = test system: HOP-62 NSCLC
SR leukemia = test system: SR leukemia
OVCAR-4 ovarian = test system: OVCAR-4 ovarian
COLO 205 colon = test system: COLO 205 colon
M19-MEL melanoma = test system: M19-MEL melanoma
DMS 114 small cell lung = test system: DMS 114 small cell lung
OVCAR-5 ovarian = test system: OVCAR-5 ovarian
ACHN renal = test system: ACHN renal
CCRF-CEM leukemia = test system: CCRF-CEM leukemia

| Structure (SMILES) | TGI (HOP-62 NSCLC) | TGI (SR leukemia) | TGI (OVCAR-4 ovarian) | TGI (COLO 205 colon) | TGI (M19-MEL melanoma) | TGI (DMS 114 small cell lung) | TGI (OVCAR-5 ovarian) | TGI (ACHN renal) | TGI (CCRF-CEM leukemia) | GI50 (CCRF-CEM leukemia) | GI50 (HOP-62 NSCLC) | GI50 (SR leukemia) | GI50 (OVCAR-4 ovarian) | GI50 (COLO 205 colon) | GI50 (M19-MEL melanoma) | GI50 (DMS 114 small cell lung) | GI50 (OVCAR-5 ovarian) | GI50 (ACHN renal) |
| --- | --- | --- | --- | --- | --- | --- | --- | --- | --- | --- | --- | --- | --- | --- | --- | --- | --- | --- |
| CC1=C2CCCC2C/C(=N/Nc2ccc([N+](=O)[O-])cc2[N+](=O)[O-])CC1 (stereo unspecified) | > 100 µM | > 100 µM | > 100 µM | > 100 µM | > 100 µM | > 100 µM | > 100 µM | > 100 µM |  |  |  |  |  |  |  |  |  |  |
| CC1(Sc2ccccc2)CN(Cc2ccccc2)C1=O (stereo unspecified) | > 100 µM |  | > 100 µM | > 100 µM | > 100 µM | > 100 µM |  | > 100 µM | > 100 µM |  |  |  |  |  |  |  |  |  |
| CC(=O)/C(=C\c1ccco1)C(=O)Nc1ccccc1 | > 100 µM | > 100 µM | > 100 µM |  | > 100 µM | > 100 µM |  | > 100 µM | > 100 µM |  |  |  |  |  |  |  |  |  |
| NCC1(N2CCOCC2)C2CCCC21CO (stereo unspecified) | > 100 µM | > 100 µM | > 100 µM | > 100 µM | > 100 µM | > 100 µM | > 100 µM | > 100 µM | > 100 µM |  |  |  |  |  |  |  |  |  |
| COC(=O)[C@@H]1CSC(=S)N1C(=O)C[C@H]1CC=CC[C@H]1CC(=O)Sc1ccccc1 | 38 µM | 27.9 µM |  | 37.1 µM | 47.1 µM |  | 33.8 µM | 32.1 µM | 14.9 µM |  |  |  |  |  |  |  |  |  |
| CC(=O)[O][Pb]([O]C(C)=O)([c]1ccccc1)[c]1ccccc1 | 52 µM | > 100 µM | > 100 µM | 15 µM | 9.89 µM | 4.16 µM | > 100 µM | > 100 µM | > 100 µM | 16.2 µM | 25.2 µM | 6.22 µM | > 100 µM | 1.76 µM | 2.77 µM | 1.44 µM | 25.9 µM | > 100 µM |
| O=C(CCn1[nH]c(=O)c(Cl)c(Cl)c1=O)NOCCCc1ccccc1 | > 100 µM | > 100 µM | > 100 µM |  | > 100 µM |  | > 100 µM | > 100 µM | > 100 µM |  |  |  |  |  |  |  |  |  |
| O=C1C/C(=C/c2ccc(/C=C3/CC(=O)N(c4cccc(Br)c4)C3=O)cc2)C(=O)N1c1cccc(Br)c1 | > 100 µM | > 100 µM | > 100 µM | > 100 µM | > 100 µM | > 100 µM | > 100 µM | > 100 µM | > 100 µM |  |  |  |  |  |  |  |  |  |
| CCC[CH2][Sn]([CH2]CCC)([O]C(C)=O)[O]C(C)=O | 3.9 µM | 4.72 µM | 3.5 µM | 4.29 µM | 5.12 µM |  | 2.71 µM | 2.75 µM | 0.832 µM | 0.197 µM | 2.17 µM | 0.571 µM | 1.79 µM | 1.81 µM |  |  | 1.23 µM | 1.44 µM |
| O=C(NCCCCCCNC(=O)c1cccc2ccccc12)c1cccc2ccccc12 | 48.3 µM | > 100 µM | 58.6 µM | 3.4 µM |  | > 100 µM | > 100 µM | > 100 µM | > 100 µM |  |  |  |  |  |  |  |  |  |
| CS(=O)(=O)CC1=Nc2nnc(CCCCCCCc3nnc4n3C(=O)C(CS(C)(=O)=O)=N4)n2C1=O | > 100 µM | > 100 µM |  | > 100 µM | > 100 µM | > 100 µM | > 100 µM | > 100 µM | > 100 µM |  |  |  |  |  |  |  |  |  |
| CN(C)c1ccc2c(NCCCCCCNc3ccnc4cc(N(C)C)ccc34)ccnc2c1 | 67.9 µM | > 100 µM | 28.2 µM |  | 95.3 µM | 66.6 µM | 79.6 µM | 33.6 µM | > 100 µM |  |  |  |  |  |  |  |  |  |
